One data set relates to neurite. The data set can be described thus: Neurite initiation and neurite length. The class given is cell-based. The text has this: The peptide GsMTx4 of the present invention can be prepared for pharmaceutical use by incorporation with a pharmaceutically acceptable carrier or diluent. The peptide can be formulated into tablets, capsules, caplets and the like. Suitable carriers for tablets include calcium carbonate, starch, lactose, talc, magnesium stearate and gum acacia. The peptide can also be formulated for oral, parenteral or intravenous administration in aqueous solutions, aqueous alcohol, glycol or oil solutions or emulsions. The peptide can also be formulated for inhaling by encapsulating to facilitate alveolar absorption as has been done for insulin (Inhale Therapeutic Systems, San Carlos, Calif., inhale.com). Pharmaceutical compositions suitable for such routes of administration are well known in the art. For example, suitable forms and compositions of pharmaceutical preparations can be found in Remington's Pharmaceutical Science, 1980, 15^thed. Mack Publishing Co., Easton, Pa. Thus, the peptide GsMTx4 can be administered orally, subcutaneously, parenterally, intravenously, intramuscularly or intranasally. The peptide may also be applied to medical devices that will come into contact blood. Both L and D enantiomers of GsMTx4's and its variants can be used for the present invention. We have previously shown that both L- and D-GsMTx4 block mechanosensitive channel (MSC) activity. Although, we have noted differences in the effects of these enantiomers, both forms are effective. For example, we have observed that the ability of the mirror image form (D-enantiomer) to inhibit mechanically activated ion channels is similar to the wild type peptide (L-form) (Suchyna et al 2004). […] Thus, both L and the D forms can be used in the present invention.

The next data set deals with mdx mice. Description: Toxicity with daily subQ dosing for 30 days. The class given is in vivo, mouse. The following applies: 5 mg/kg subQ daily, 30 days (month long). The protocol: This example describes toxicity studies with GsMTx-4. In one experiment, D-GsMTx4 was administered to 60 mdx mice and controls by daily subQ dosing at 5 mg/kg for 30 days at the Washington D.C. Wellstone center.

Data set [1] concerns mechanosensitive channel (MSC). To be noted: cited from earlier work.
For a further data set, the system named is rats. Description: Acute IV toxicity, observed for 1 hour, rats. Format: in vivo, rat. The protocol: In another experiment, rats were IV injected with D-GsMTx4 at 9, 3, and 1 mg/kg concentrations and observed for 1 hour at Covance Drug Development Company. There were 3 rats injected for 3 and 1 mg/kg and 1 rat injected for 9 mg/kg concentration.
Data set [2] can be described thus: Tissue distribution over 24 hrs after a single dosing. The class given is in vivo, mouse. To be noted: for Tmax: mouse, blood, read-out: time of peak blood concentration. The protocol:
This example describes the tissue distribution of GsMTx-4. Mice were dosed with D-GsMTx4 by three methods of administration and sacrificed at different time points over 24 hrs by Covance Drug Development Company. Tissues were harvested and sent frozen to Custom Biologics Company for concentration analysis. There were three animals per cohort and 7 time points distributed approximately logarithmically over 24 hours following a single dosing. We followed the distribution of peptide for three routes of administration −5 mg/kg IV, 50 mg/kg subQ and 50 mg/kg GI lavage. […] We sampled 7 different tissues including EDL muscle, diaphragm, brain, bladder, heart, liver and blood. […] Under both methods the peptide peaked in all tissues at about 2 hrs and plateaued for the 24 hr experiment duration. […] The distribution followed a pattern reflecting the relative capillary permeability of the tissue. […] Since the peptide has a strong partition coefficient to lipids, the mean concentration in the tissues is much lower than that in the membrane, the site of action.

Another data set relates to ferrets. The data set can be described thus: Cardiovascular hemodynamics and EKG after IV injection in telemetered animals. Format: in vivo, ferret. The following applies: IV 0.2 to 5 mg/kg. The protocol:
In another study, Cardiovascular hemodynamics and EKG was assessed after IV injection of D-GsMTx4 into telemetered free ranging ferrets in 4 cohorts of 3 animals over concentration ranging from 0.2 to 5 mg/kg at Covance Drug Development Company. This study was one of the main recommendations given us by the TACT advisory panel in Spring 2011. Particular attention was given to QT intervals, arterial pressure (mean, systolic and diastolic) and core temperature for 24 hours following IV injection.

Another data set deals with mice. The data set can be described thus: Acute IV toxicity, observed for 1 hour, mice. Format: in vivo, mouse. The protocol: In another experiment, mice were IV injected with D-GsMTx4 at 9, 5, 3, and 1 mg/kg concentrations and observed for 1 hour at Covance Drug Development Company. There were 3 mice injected per concentration. […] All mice appeared normal by 1 hour.

Data set [3] concerns the target lysophosphatidic acid (LPA)-activated cation-permeable channel in human SS red cells.
The target in data set [4] is deoxygenation-induced Ca2+-permeable cation conductance (Psickle-like).
The next data set has as its target T1, KCa3.1 (Homo sapiens, UniProt O15554).
T1 construct: KCa3.1 activity stimulated in intact human AA cells by 1 μM A23187; endogenous in cells; host or cells: intact human AA red blood cells
To be noted: 50 nM; cited from earlier work.

For data set [5], the system named is LPA-induced cation conductance in human SS red cells. Description: On-cell patch clamp of LPA-induced cation conductance. The class given is cell-based. To be noted: 5 μM; Na methanesulfonate in bath and pipette, -Vp=-50 mV; n=8. The text has this:
On-cell patch clamp: Borosilicate pipettes (Corning 7052) pulled with a Narishige two stage puller or a Sutter P97 puller and fire-polished to resistances of 10-20 MΩ were front-filled and then backfilled. Symmetric bath and pipette solutions for studies of seal resistance stability during reversibility tests of the deoxygenation-activated conductance in SAD mouse red cells were (in mM) 140 NaCl, 4 KCl, 1 CaCl2, 1 MgCl2, 10 Na HEPES, pH 7.4. These conditions yielded tight seals in 13% of patch attempts on SAD cells. For study of deoxygenation-induced monovalent cation permeation in the absence of bath Ca^2+ and Mg^2+ recorded in SAD and Berkeley mouse cells and in human cells, symmetric bath and pipette solutions contained (in mM) 150 Na methanesulfonate, 10 Na EDTA, and 10 Na HEPES, pH 7.4. These conditions yielded tight seals in 16% of patch attempts on SAD mouse red cells, 26% of attempts on Berkeley mouse cells, and 30% of attempts on human SS cells. For study of Ca^2+ permeation in human SS cells, bath and pipette solutions contained (in mM) 100 CaCl2, 10 Na HEPES, pH 7.4. These conditions yielded tights seals on 44% of attempts. For all conditions tested in human red cells, 70% of tight seals were sustained through the solution change accompanying deoxygenation to allow recording of current activity.
On-cell patch currents were recorded with the Axopatch 1-D amplifier (Axon Instruments/Molecular Devices, Sunnyvale, Calif.). Holding potential was −Vp=−50 mV (expressed as the negative of the pipette potential (e.g., equivalent to the intracellular potential with respect to the pipette). To determine current-voltage relationships (I-V curves) in Fetchex or Clampex (PCLAMP, Axon Instruments), the realtime control window in gap-free mode was used to record current traces of 10-30 sec duration at holding potentials ranging from −100 to +100 mV, in 25 mV increments. The bath reference electrode was a silver chloride wire with a 3 M KCl agar bridge. Data was filtered at 500 Hz, digitized at 2 kHz by Clampex, and analyzed offline by Fetchan and Pstat or by Clampfit subroutines of PCLAMP. Holding potentials in on-cell patch experiments were expressed as −Vp, the negative of the pipette potential.
Deoxygenation-activated flickering cation conductance observed in human SS cells contrasted with the prolonged channel openings produced by 5 μM LPA (FIG. 10A). In SS cells, LPA increased NPo […], from 0.04±0.03 to 0.82±0.18 (n=8, p<0.001; Na methanesulfonate in bath and pipette, −Vp=−50 mV; FIG. 10B). LPA-induced cation conductance was 96% inhibited by 100 uM dipyridamole in the pipette, and 97% inhibited by 1 μM GsMTx-4 in the pipette (both n=4).

The test system of a further data set is human SS red cells. The data set can be described thus: Fluo-3 fluorescence measurement of [Ca2+]i after LPA. To be noted: 5 μM; 75 SS red cells. Format: cell-based. The text has this:
Fluorescence measurements of cytosolic [Ca^2+] ([Ca^2+]i): After removal of plasma and buffy coat by aspiration, human or mouse red cells were washed three times at room temperature and suspended in modified Hank's solution containing (in mM), 137 NaCl, 5.4 KCl, 1 CaCl2, 1 MgCl2, 0.8 NaK phosphate, 5.6 glucose, and 10 Na HEPES, pH 7.4. Dilute cell suspensions were settled on polylysine-coated coverslips forming the bottom of an open perfusion chamber (2.5 cm diameter, 1 cm depth) and washed again 3 times.
Measurement of relative changes in [Ca^2+]i by Fluo-3 fluorescence emission was previously validated in intact human (Yang et al. 2000, Blood, 95(7):2421-2425; Andrews et al. 2002, Blood, 199(9):3392-3399) and mouse red cells (Akel et al. 2007, Amer. J. Physiol., 292(5):C1759-1767). Attached red cells were loaded in the dark with the fluorescent non-ratiometric Ca^2+ indicator Fluo-3-AM (10 μM, Molecular Probes, Eugene, Oreg.) at 37° C. for 1 hr, then washed and incubated 15 min further to allow de-esterification of intracellular dye. […] Fluorescence emission (proportional to [Ca^2+]i) from a 535ds20 bandpass filter was collected from all attached single cells within the arbitrarily selected visual field. […]

Like-named read-outs stand apart in the source and are kept apart here. Where a SMILES comes first, the peptide text is derived from it. Bridges are numbered along the chain shown (N, C = ends). [ ]: non-standard residue; d: D form. A value given as a limit tells only on which side of the number the result lay.

T1 sequence (O15554 whole entry): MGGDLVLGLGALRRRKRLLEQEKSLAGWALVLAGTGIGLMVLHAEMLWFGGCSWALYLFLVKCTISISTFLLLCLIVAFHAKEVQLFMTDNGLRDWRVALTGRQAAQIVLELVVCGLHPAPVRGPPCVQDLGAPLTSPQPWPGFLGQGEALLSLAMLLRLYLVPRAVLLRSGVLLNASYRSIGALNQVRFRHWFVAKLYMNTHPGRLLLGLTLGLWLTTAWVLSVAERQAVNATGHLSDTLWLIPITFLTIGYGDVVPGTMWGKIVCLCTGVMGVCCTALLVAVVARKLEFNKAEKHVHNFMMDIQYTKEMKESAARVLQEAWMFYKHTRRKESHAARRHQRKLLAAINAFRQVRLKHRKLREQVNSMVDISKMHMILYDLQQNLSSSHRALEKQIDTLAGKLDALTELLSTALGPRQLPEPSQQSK

Turning to `CC(C)C[C@H]1NC(=O)[C@H](NC(=O)CN)CSSC[C@H]2NC(=O)[C@H]3CSSC[C@H](C(=O)N[C@H](CC(N)=O)C(=O)N[C@H](Cc4ccccc4)C(=O)N[C@H](CO)C(=O)N[C@H](Cc4ccccc4)C(N)=O)NC(=O)[C@@H](CC(C)C)NC(=O)[C@@H](CCCCN)NC(=O)[C@@H](Cc4ccccc4)NC(=O)[C@@H](CC(C)C)NC(=O)[C@@H](CCCCN)NC(=O)[C@@H](CO)NC(=O)[C@@H](CSSC[C@@H](NC(=O)[C@@H](CCCCN)NC(=O)[C@@H](Cc4c[nH]c5ccccc45)NC(=O)[C@@H](Cc4c[nH]c5ccccc45)NC(=O)[C@@H](Cc4ccccc4)NC(=O)[C@@H](CCC(=O)O)NC1=O)C(=O)N[C@H](CC(N)=O)C(=O)N1CCC[C@@H]1C(=O)N[C@H](CC(N)=O)C(=O)N[C@H](CC(=O)O)C(=O)N[C@H](CC(=O)O)C(=O)N[C@H](CCCCN)C(=O)N3)NC(=O)[C@@H](CCCCN)NC(=O)[C@@H](CC(C)C)NC(=O)[C@@H](CCCCN)NC(=O)[C@H]1CCCN1C(=O)[C@@H](CCCNC(=N)N)NC2=O` [D-GsMTx4] (H-G[dC][dL][dE][dF][dW][dW][dK][dC][dN][dP][dN][dD][dD][dK][dC][dC][dR][dP][dK][dL][dK][dC][dS][dK][dL][dF][dK][dL][dC][dN][dF][dS][dF]-NH2; disulfide 2-17, 9-23, 16-30 (inferred); N-terminus and C-terminus assumed), the “effect on neurite length” value with neurite is “no significant effect”. Also, in the data set on neurite, the neurite initiation entry is recorded as “did not stimulate”. Further, the toxicity result in the data set on mdx mice is recorded as “No apparent toxicity”. For the same molecule, the “ability to inhibit mechanically activated ion channels compared with wild type peptide (L-form)” value in [1] (Suchyna et al 2004) is “similar”. The “effect on mechanosensitive channel (MSC) activity” value in data set [1] (previously shown) is listed as “block”. Also, the clinical signs result was “slow respiration, refusal to ambulate, decreased muscle tone” with rats (IV 9 mg/kg (highest dose), rat, remained for the 60 minute test duration); “slight tremors and decreased activity” in the data set with mice (IV 9 mg/kg (highest dose), mice). Besides, the mortality entry with rats (IV 9, 3 and 1 mg/kg, rats, 1 hour) is reported as “No animals died”; in data set [2] (5 mg/kg IV, 50 mg/kg subQ, 50 mg/kg GI lavage, 24 hour), “No animals died”; in the data set with mice (IV 9, 5, 3 and 1 mg/kg, mice, 1 hour), “No animals died”. Besides, the “time of peak in all tissues” value is “about 2 hrs” in data set [2] (5 mg/kg IV, mice) and “about 2 hrs” in data set [2] (50 mg/kg subQ, mice). The concentration in tissues entry in data set [2] (50 mg/kg GI lavage, mice) was “almost no measurable concentration”. Moreover, the “distribution pattern among tissues” value in data set [2] (IV and subQ, 7 tissues) is listed as “liver received the most while brain received the least”. Moreover, in data set [2] (IV and subQ, 24 hr), the “course of tissue concentration after peak” value was “plateaued”. Moreover, the “course of blood concentration after peak” value in [2] (IV and subQ, over 24 hrs) is listed as “decreased exponentially”. Moreover, the Tmax in data set [2] (sc, 50 mg/kg subQ, mice) is ≤ 2 h; in [2] (5 mg/kg IV, mice) it was ≤ 2 h. Further, the “effective half life of bound drug” value in data set [2] (suggested by the distribution data) is given as “very long”. Further, the behavior changes entry with ferrets is “no behavior changes”. In addition, the “changes in QT intervals, arterial pressure and core temperature” value in the data set with ferrets (24 hours) was “No statistically significant changes”. Moreover, in the data set on mice (IV 9 mg/kg, mice), the “duration of clinical signs after injection” value was ~0.5 h. In addition, the “time by which all mice appeared normal” value in the data set with mice (IV, all doses) was ≤ 1 h.

In the case of “Grammastola spatulata mechanotoxin 4 (GsMTx4) (peptide)”, in data set [3], the LPA-induced cation conductance (NPo), on-cell patch on human SS red cells is 97 % inhibited. The molecule further had an NPo of deoxygenation-induced cation conductance, on-cell patch on human SS red cells, Na methanesulfonate in pipette and bath in [4] of 0.003 NPo.

As for charybdotoxin, in the data set with KCa3.1, the “effect on A23187-stimulated 86Rb+ influx” value is given as “completely inhibited”.

Consider lysophosphatidic acid [LPA], for which, in data set [5], the NPo after exposure was determined as 0.82±0.18 and the “increase in NPo” value turned out to be 16 fold. Moreover, in the data set with human SS red cells, the “effect on [Ca2+]i (Fluo-3 fluorescence)” value is “elevated”.
